The source of these data is patent publication US20250154105A1, “POLYCYCLIC COMPOUND AND USE THEREOF” (TYK MEDICINES, INC., priority 2021, published 2025).

Test [1] has as its system human pleural mesothelioma cells NCI-H226. Description: Cell anti-proliferation experiment (CCK8), NCI-H226. The class given is cell-based. An excerpt: TEST EXAMPLE 1 CELL ANTI-PROLIFERATION EXPERIMENT
Determination of proliferation inhibition of YAP-TEAD inhibitor compounds on human pleural mesothelioma cells NCI-H226
Experimental materials and equipments: Human pleural mesothelioma cells NCI-H226 was purchased from NANJING COBIOER BIOSCIENCES CO., LTD. RPMI-1640 medium (Bio-Channel), DMSO (dimethyl sulfoxide), CCK8 (WST-8) Cell Assay Kit (Beyotime), 0.25% EDTA-Tripsin (trypsin digest), 1×PBS (phosphate buffer, PH7.2), 96-well plate (Corning), fetal bovine serum (FBS), 10,000 U/mL penicillin-G/streptomycin, high-speed freezing centrifuge (EPPENDORF 5810R), enzyme-linked immunosorbent assay (Tecan Spark).
1. Cell plating • A) Tumor cells were cultured to 80-90% density in RPMI-1640 (containing 10% FBS and 100 U/mL penicillin-G/streptomycin) under the condition of 37° C., 5% CO2 and saturated humidity. • B) The culture medium was removed from the 10 cm culture dish. • C) Cells were washed with 10 ml 1×PBS. • D) 4 ml of 0.25% EDTA-Tripsin was added to digest pancreatin for 5 minutes in an incubator at 37° C. and 5% CO2. Then the mixture was transferred to a 15 ml centrifuge tube, and centrifuged for 5 minutes at 200 g. The supernatant was discarded to obtain cell precipitation. • E) The cell precipitation was resuspended with 4 ml of […], counted and adjusted to 10,000 cells/ml. • F) The cell suspension was added to a 96-well plate with a volume of 100 μL per well and cultured overnight in an incubator at 37° C. and 5% CO2.
• Compound dilution • A) Preparation of gradient dilution solutions of the tested compounds: the tested compounds was configured to 1 mM stock solution. Then […] of stock solution was dissolved in 1.5 ml of DMSO-free culture solution, and then 3-fold continuous gradient dilution with 0.1% DMSO culture solution was performed to get a total of 9 concentrations. The diluted concentrations of the compound were as follows: 333.33 nM, 111.11 nM, 37.03 nM, 12.35 nM, 4.15 nM, 1.37 nM, 0.46 nM, 0.15 nM • B) After full mixing, 100 μL of culture compound solution was taken to replace the culture solution in the cell culture plate, with 4 duplicated wells at each concentration; • C) The cells were transferred to the incubator to incubate for 3 days.
• A) the cell culture plate was taken out and added with 10 μl of CCK-8 (WST-8) solution per well in the biosafety cabinet; • B) The cell culture plate was put back into the incubator and continued to incubate for 3 hours; • C) 450 nm wavelength was selected to measure absorbance value on TECAN enzyme linked immunosorbent assay detector.
The following formula was used to calculate the cell viability (% Cell Viability); • Cell Viability (%)=[A(Drug-added)-A(Blank)]/[A(0 Drug-added)-A(blank)][…] • A (Drug-added): The absorbance of wells containing cells, CCK8 solution, and drug solution. • A (Blank): The absorbance of wells containing culture medium and CCK8 solution, but without cells. • A (0 Drug-added): The absorbance of wells containing cells, CCK8 solution, but without drug solution. • Cell viability: Cell proliferation viability or cytotoxicity viability was determined by the IC50 value obtained by curve fitting using GraphPad Prism 8 software.

A further test relates to YAP-TEAD. The test is described as follows: YAP-TEAD inhibitor activity by Nano luciferase method (8xGTiiC-nLuc reporter in 293T cells). To be noted: Homo sapiens, HEK-293T, 48 hours incubation, read-out: Nano-luciferase detection (IC50). Format: cell-based. An excerpt: EXAMPLE 2: YAP-TEAD INHIBITOR ACTIVITY WAS DETECTED BY NANO LUCIFERASE METHOD
(1) Experimental materials and equipments: 293T cells were purchased from NANJING COBIOER BIOSCIENCES CO., LTD. DMEM medium (High sugar, no phenol red, Bio-Channel), DMSO (dimethyl sulfoxide), Lipo6000™ transfection reagent (Beyotime), pGL3B-8xGTiiC-nLuc-CMV-fLuc plasmid, 0.25% EDTA-Tripsin (trypsin digest), 1×PBS (phosphate buffer, PH7.2), 96-well white cell culture plate (PerkinElmer), fetal bovine serum (FBS), 10,000 U/mL penicillin-G/streptomycin, high-speed freezing centrifuge (EPPENDORF 5810R), 37° C. CO2 incubator, Vi-cell® Cell Counter, Envision Microplate Reader (PerkinElmer).
The revived 293T cells were inoculated into a 10 cm culture dish and placed in an incubator with 5% CO2, and cultured at constant temperature of 37° C. To ensure transfection efficiency, cells at logarithmic phase (cell density of approximately 50%-70%) should be used.
On the day before transfection, cells at the logarithmic phase were digested with Trypsin-EDTA, and culture medium was added to terminate digestion. The cell suspension was prepared by blowing and mixing using a pipette.
Cell concentration was measured using Vi-cell, and the cell suspension was diluted to a suspension of 5*10^^5 cells per milliliter. After preparing the cell suspension, the suspension was gently mixed. 10 ml of liquid was added to a 10 cm culture dish. In this way, the number of cells in each 10 cm culture dish was 5*10^^6. The cells were incubated at a constant temperature of 37° C. for 1 day in an incubator with 5% CO2.
Two clean and sterile centrifuge tubes were taken and added with 750 μL opti-MEM Medium without antibiotics and serum, respectively. Then one tube was added with 15 μg Plasmid (pGL3B-8xGTiiC-nLuc-CMV-fLuc), and gently blew and mixed well using a pipette; the other tube was added with Lipo6000 transfection reagent, and gently blew and mixed using a pipette. After standing at room temperature for 5 minutes, the culture solution containing DNA was added gently to the culture solution containing Lipo6000 transfection reagent, and mixed well by gently inverting the centrifuge tube, then standing at room temperature for 5 minutes.
The above mixture was added evenly to a 10 cm culture dish and replaced with fresh complete culture medium after 6 hours of cultivation.
After transfection for 1 day, cells were digested with Trypsin EDTA, and culture medium was added to terminate the digestion. The cell suspension was prepared by blowing and mixing using a pipette.
Cell concentration was measured using Vi-cell, and the cell suspension was diluted to a suspension of 20000 cells per milliliter.
After preparing the cell suspension, the suspension was gently mixed, and added to 96-well plate with 100 μL per well. Thus, the density of the cells to be tested is 2000 cells per well.
The inoculated cell culture plate was placed in the incubator for cultivation, and after about 24 hour, compounds with concentration gradient were added.
10 mM compound stock solution was diluted with culture medium to 50 μM. Compound solution of 50 μM was added to the third column of the deep well plate, 216 μL of culture medium containing 0.5% DMSO was added to the fourth to eleventh columns, successively.
Gradient dilution: taking 100 μL of solution from the third column and adding the solution to the fourth column and mixing well; then taking 100 µL of solution from the fourth column again and adding the solution to the fifth column, repeating this operation until the eleventh column.
Taking 25 μL of compound solution from the deep well plate and adding it to a 96-well culture plate using a multi-channel pipette. Repeating four times on the 96 well plate for each compound. Finally, a concentration gradient of 1:3.16 was formed in the 96-well plate with a maximum concentration of 10,000 nM. The • (5) Addition of Nano Luciferase Detection Reagent and Read […]

For the compound `CNS(=O)(=O)c1ccc2c(c1)c1nn(C)cc1c(=O)n2-c1ccc(C(F)(F)F)cc1` [Example T-31], the half-inhibitory concentration (IC50) (in test [1]; in the test on YAP-TEAD) was at most 1000 nM in each case.
For `CNS(=O)(=O)c1ccc2c(c1)c1nc[nH]c1c(=O)n2-c1ccc(C(F)(F)F)cc1` [Example T-33], the 50% inhibitory concentration (IC50) (in test [1]; in the test with YAP-TEAD) was at most 1000 nM in each case.
With `C[C@@H](NC(=O)c1ccc2c(c1)c(=O)ccn2-c1ccc(C(F)(F)F)cc1)c1ccccn1` [Example T-34], the IC50 in test [1] was 1000 to 5000 nM; in the test with YAP-TEAD, at most 1000 nM.
The like results for `COC[C@H](C)NC(=O)c1ccc2c(c1)c(=O)ccn2-c1ccc(C(F)(F)F)cc1` [Example T-35] were, in that order, 1000 to 5000 nM and at most 1000 nM.
As to `N#CC1CN(C(=O)c2ccc3c(c2)c(=O)ccn3-c2ccc(C(F)(F)F)cc2)C1` [Example T-38], the IC50 (in test [1]; in the test on YAP-TEAD) was 1000 to 5000 nM in each case.
As to `CNS(=O)(=O)c1ccc2c(c1)-c1ncn(CCOC)c1CN2c1ccc(C(F)(F)F)cc1` [Example T-39], the IC50 (in test [1]; with YAP-TEAD) was at most 1000 nM throughout.
As for `CNS(=O)(=O)c1ccc2c(c1)c1cn(CCOC)nc1c(=O)n2-c1ccc(C(F)(F)F)cc1` [Example T-45], the IC50 (in test [1]; in the test with YAP-TEAD) was at most 1000 nM throughout.
`CNS(=O)(=O)c1ccc2c(c1)c1ncn(CCO)c1c(=O)n2-c1ccc(C(F)(F)F)cc1` [Example T-46]: the half-inhibitory concentration (IC50) (in test [1]; with YAP-TEAD) was at most 1000 nM in each case.
Turning to `CN[S+]([O-])c1ccc2c(c1)c1ncn(CCOC)c1c(=O)n2-c1ccc(C(F)(F)F)cc1` (stereo not shown) [Example T-47], the half-inhibitory concentration (IC50) (in test [1]; with YAP-TEAD) was at most 1000 nM in each case.
For the compound `CNS(=O)(=O)c1ccc2c(c1)c1ncn(C)c1c(=O)n2Cc1ccc(C(F)(F)F)cc1` [Example T-48], the concentration for half-maximal inhibition (IC50) (in test [1]; with YAP-TEAD) was at most 1000 nM throughout.
Regarding `CNS(=O)(=O)c1ccc2c(c1)-c1ncn(C)c1CN2Cc1ccc(C(F)(F)F)cc1` [Example T-49], the IC50 (in test [1]; with YAP-TEAD) was at most 1000 nM throughout.
On to `CC(C)NC(=O)c1ccc2c(c1)cc(Br)c(=O)n2-c1ccc(C(F)(F)F)cc1` [Example T-50], for which the half-maximal inhibitory concentration (IC50) (in test [1]; in the test on YAP-TEAD) was 1000 to 5000 nM throughout.
On to `CNS(=O)(=O)c1ccc2c(c1)-c1nn(C)cc1CC(=O)N2c1ccc(C(F)(F)F)cc1` [Example T-51], for which the IC50 (in test [1]; in the test with YAP-TEAD) was at most 1000 nM throughout.
For `CNS(=O)(=O)c1ccc2c(c1)-c1cn(C)nc1CC(=O)N2c1ccc(C(F)(F)F)cc1` [Example T-52], the IC50 (in test [1]; in the test with YAP-TEAD) was at most 1000 nM throughout.
With `CNS(=O)(=O)c1ccc2c(c1)-c1nn(C)cc1CCN2c1ccc(C(F)(F)F)cc1` [Example T-54], the IC50 (in test [1]; in the test with YAP-TEAD) was at most 1000 nM in each case.
For `CNS(=O)(=O)c1ccc2c(c1)-c1cn(C)nc1CCN2c1ccc(C(F)(F)F)cc1` [Example T-55], the concentration for half-maximal inhibition (IC50) (in test [1]; in the test on YAP-TEAD) was at most 1000 nM throughout.
Take `CNS(=O)(=O)c1ccc2c(c1)c1ncn(C)c1c(=O)n2-c1cccc(C(F)(F)F)c1` [Example T-57]: the IC50 (in test [1]; with YAP-TEAD) was at most 1000 nM in each case.
For `CNS(=O)(=O)c1ccc2c(c1)c1nn(C)cc1c(=O)n2-c1cccc(C(F)(F)F)c1` [Example T-58], the concentration for half-maximal inhibition (IC50) (in test [1]; in the test on YAP-TEAD) was at most 1000 nM in each case.
Turning to `CNS(=O)(=O)c1ccc2c(c1)c1ncn(C)c1c(=O)n2-c1ccccc1` [Example T-60], the IC50 (in test [1]; with YAP-TEAD) was at most 1000 nM each time.
In the case of `CNS(=O)(=O)c1ccc2c(c1)c1nn(C)cc1c(=O)n2-c1ccccc1` [Example T-61], the IC50 (in test [1]; in the test with YAP-TEAD) was at most 1000 nM each time.
For `CNS(=O)(=O)c1ccc2c(c1)c1nn(C)cc1c(=O)n2-c1ccc(F)cc1` [Example T-65], the IC50 (in test [1]; in the test on YAP-TEAD) was at most 1000 nM each time.
On to `CNS(=O)(=O)c1ccc2c(c1)c1cn(C)nc1c(=O)n2-c1ccc(F)c(F)c1` [Example T-66], for which the concentration for half-maximal inhibition (IC50) (in test [1]; in the test with YAP-TEAD) was at most 1000 nM each time.
Take `CNS(=O)(=O)c1ccc2c(c1)c1nn(C)cc1c(=O)n2-c1ccc(F)c(F)c1` [Example T-68]: the IC50 (in test [1]; in the test with YAP-TEAD) was at most 1000 nM in each case.
For the compound `CNS(=O)(=O)c1ccc2c(c1)c1nn(C)cc1c(=O)n2-c1cccc(F)c1` [Example T-72], the IC50 (in test [1]; with YAP-TEAD) was at most 1000 nM in each case.
In the case of `CNS(=O)(=O)c1ccc2c(c1)c1nn(C)cc1c(=O)n2-c1cccc(C)c1` [Example T-79], the IC50 was 1000 to 5000 nM in test [1] and at most 1000 nM in the test with YAP-TEAD.
The corresponding values for `CNS(=O)(=O)c1ccc2c(c1)c1nn(C)cc1c(=O)n2-c1ccc(C)cc1` [Example T-82] are at most 1000 nM and at most 1000 nM.
On to `CC(C)NC(=O)c1ccc2c(c1)c1nn(C)cc1c(=O)n2-c1ccc(C(F)(F)F)cc1` [Example T-86], for which the IC50 (in test [1]; with YAP-TEAD) was at most 1000 nM throughout.
`COC(=O)c1ccc2c(c1)c1ncn(C)c1c(=O)n2-c1ccc(C(F)(F)F)cc1` [Example T-99]: the half-maximal inhibitory concentration (IC50) (in test [1]; in the test on YAP-TEAD) was 1000 to 5000 nM throughout.
Regarding `COC(=O)c1ccc2c(c1)c1nn(C)cc1c(=O)n2-c1ccc(C(F)(F)F)cc1` [Example T-100], the IC50 (in test [1]; with YAP-TEAD) was 1000 to 5000 nM each time.

As a reminder, the IC50 is the concentration that inhibits the measured activity by half.
